Measurements published in patent US9034851B2, “Substituted pyrimidines” (MERCK SHARP & DOHME CORP., priority 2011, dated 2015).

Target: T1, HIF PHD2 (Homo sapiens, UniProt Q9GZT9)
T1 construct: FLAG-tagged full length PHD2; FLAG; made in house; host or cells: baculovirus-infected Sf9 cells
Assay: PHD2 inhibition assay (time resolved fluorescence, HIF-1α peptide hydroxylation / VHL detection)
Type: biochemical
Conditions: FLAG-tagged full length PHD2; 0.2 μM 2-oxoglutarate, 0.5 μM HIF-1α peptide
Procedure: To each well of a 96-well plate was added 1 μL of test compound in DMSO and 20 μl of assay buffer (50 mM Tris pH 7.4/0.01% Tween-20/0.1 mg/ml bovine serum albumin/10 μM ferrous sulfate/1 mM sodium ascorbate/20 μg/ml catalase) containing 0.15 μg/ml FLAG-tagged full length PHD2 expressed in and purified from baculovirus-infected Sf9 cells. After a 30 min preincubation at room temperature, the enzymatic reactions were initiated by the addition of 4 μL of substrates (final concentrations of 0.2 μM 2-oxoglutarate and 0.5 μM HIF-1α peptide biotinyl-DLDLEMLAPYIPMDDDFQL (SEQ ID NO:1)). After 2 hours at room temperature, the reactions were terminated and signals were developed by the addition of a 25 μL quench/detection mix to a final concentration of 1 mM ortho-phenanthroline, 0.1 mM EDTA, 0.5 nM anti-(His)6 LANCE reagent (Perkin-Elmer Life Sciences), 100 nM AF647-labeled streptavidin (Invitrogen), and 2 μg/ml (His)6-VHL complex (S. Tan (2001) Protein Expr. Purif. 21, 224-234). The ratio of time resolved fluorescence signals at 665 and 620 nm was determined; and percent inhibition was calculated relative to an uninhibited control sample run in parallel.

T1 sequence (Q9GZT9 whole entry): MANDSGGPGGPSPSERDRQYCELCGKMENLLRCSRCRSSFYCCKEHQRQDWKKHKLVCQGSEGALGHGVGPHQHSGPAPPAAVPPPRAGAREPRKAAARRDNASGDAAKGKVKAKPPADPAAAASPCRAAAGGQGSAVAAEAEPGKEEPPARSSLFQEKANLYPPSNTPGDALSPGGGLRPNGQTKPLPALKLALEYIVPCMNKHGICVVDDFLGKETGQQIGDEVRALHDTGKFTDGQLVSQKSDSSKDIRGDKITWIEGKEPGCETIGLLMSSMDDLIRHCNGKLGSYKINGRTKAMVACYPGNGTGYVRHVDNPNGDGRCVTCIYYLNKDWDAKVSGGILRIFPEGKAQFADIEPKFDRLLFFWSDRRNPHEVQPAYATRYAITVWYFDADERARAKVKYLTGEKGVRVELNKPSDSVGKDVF

**Q.** For `O=C(O)CNC(=O)c1ncc(C(=O)NCc2ccc3ccccc3c2)c(O)n1` [Compound 2-22, N-({4-hydroxy-5-[(naphthalen-2-ylmethyl)carbamoyl]pyrimidin-2-yl}carbonyl)glycine], which IC50 is on record?
**A.** Its IC50 is 20 to 100 nM.

**Q.** With `O=C(O)CNC(=O)c1ncc(C(=O)NC(c2ccc(F)cc2)c2ccc(F)cc2)c(O)n1` [Compound 2-19, 2-(5-(bis(4-fluorophenyl)methylcarbamoyl)-4-hydroxypyrimidine-2-carboxamido) acetic acid] as the compound, how does the IC50 read?
**A.** The IC50 was 0.5 to 20 nM.

**Q.** Which IC50 does the source give for `CCOC(=O)CNC(=O)c1ncc(C(=O)NC(c2ccccc2)c2ccccc2)c(O)n1` [Compound 2-2, Ethyl N-({5-[(diphenylmethyl)carbamoyl]-4-hydroxypyrimidin-2-yl}carbonyl)glycinate] here?
**A.** Its IC50 is 0.5 to 20 nM.

**Q.** For `CP(=O)(O)CNC(=O)c1ncc(C(=O)NC(c2ccccc2)c2ccccc2)c(O)n1` [Compound 2-14, {[({5-[(diphenylmethyl)carbamoyl]-4-hydroxypyrimidin-2-yl}carbonyl)amino]methyl}methylphosphinicacid], which IC50 is on record?
**A.** The IC50 was 0.5 to 20 nM.

**Q.** With `O=C(O)CNC(=O)c1ncc(C(=O)NC(c2ccccc2)c2ccccc2)c(O)n1` [Compound 2-12, 2-(5-(benzhydrylcarbamoyl)-4-hydroxypyrimidine-2-carboxamido)acetic acid] as the compound, how does the IC50 read?
**A.** The IC50 was 0.5 to 20 nM.

**Q.** For `CCOP(=O)(CNC(=O)c1ncc(C(=O)NC(c2ccccc2)c2ccccc2)c(O)n1)OCC` [Compound 2-5, Diethyl {[({5-[(diphenylmethyl)carbamoyl]-4-hydroxypyrimidin-2-yl}carbonyl)amino]methyl}phosphonate], which IC50 is on record?
**A.** The IC50 was 20 to 100 nM.

**Q.** `CCOC(=O)CNC(=O)c1ncc(C(=O)NCc2cccc3ccccc23)c(O)n1` [Compound 2-20, Ethyl-2-(4-hydroxy-5-(naphthalen-1-ylmethylcarbamoyl)pyrimidine-2-carboxamido)acetate] was tested. Which IC50 did it give?
**A.** The IC50 was 100 to 10000 nM.

**Q.** How did the IC50 turn out when `O=C(O)CCNC(=O)c1ncc(C(=O)NC(c2ccccc2)c2ccccc2)c(O)n1` [Compound 2-11, 3-(5-(benzhydrylcarbamoyl)-4-hydroxypyrimidine-2-carboxamido)propanoic acid] was run?
**A.** Its IC50 is 0.5 to 20 nM.

**Q.** With `CCOC(=O)CNC(=O)c1ncc(C(=O)NC(c2ccc(F)cc2)c2ccc(F)cc2)c(O)n1` [Compound 2-18, Ethyl 2-(5-(bis(4-fluorophenyl)methylcarbamoyl)-4-hydroxypyrimidine-2-carboxamido)acetate] as the compound, how does the IC50 read?
**A.** The IC50 was 0.5 to 20 nM.

**Q.** Which IC50 does the source give for `O=C(NCP(=O)(O)O)c1ncc(C(=O)NC(c2ccccc2)c2ccccc2)c(O)n1` [Compound 2-13, {[({5-[(diphenylmethyl)carbamoyl]-4-hydroxypyrimidin-2-yl}carbonyl)amino]methyl}phosphonicacid] here?
**A.** The IC50 was 20 to 100 nM.

**Q.** Which IC50 does the source give for `CP(=O)(O)c1cnn(-c2ncc(C(=O)NC(c3ccccc3)c3ccccc3)c(O)n2)c1` [Compound 1-1, 1-(5-(benzhydrylcarbamoyl)-4-hydroxypyrimidin-2-yl)-1H-pyrazol-4-yl(methyl)phosphinic acid] here?
**A.** Its IC50 is 0.5 to 20 nM.

**Q.** `O=C(CNC(=O)c1ncc(C(=O)NC(c2ccccc2)c2ccccc2)c(O)n1)OCc1ccccc1` [Compound 2-7, Benzyl N-({5-[(diphenylmethyl)carbamoyl]-4-hydroxypyrimidin-2-yl}carbonyl)glycinate] was tested. Which IC50 did it give?
**A.** The IC50 was 0.5 to 20 nM.

**Q.** With `CCOP(C)(=O)CNC(=O)c1ncc(C(=O)NC(c2ccccc2)c2ccccc2)c(O)n1` (stereo not shown) [Compound 2-6, Ethyl {[({5-[(diphenylmethyl)carbamoyl]-4-hydroxypyrimidin-2-yl}carbonyl)amino]methyl}methylphosphinate] as the compound, how does the IC50 read?
**A.** Its IC50 is 0.5 to 20 nM.

**Q.** With `CCOC(=O)CCNC(=O)c1ncc(C(=O)NC(c2ccccc2)c2ccccc2)c(O)n1` [Compound 2-1, Ethyl N-({5-[(diphenylmethyl)carbamoyl]-4-hydroxypyrimidin-2-yl}carbonyl)-β-alaninate] as the compound, how does the IC50 read?
**A.** Its IC50 is 0.5 to 20 nM.

**Q.** With `COc1ccc(C(NC(=O)c2cnc(C(=O)NCC(=O)O)nc2O)c2ccc(OC)cc2)cc1` [Compound 2-17, 2-(5-(bis(4-methoxyphenyl)methylcarbamoyl)-4-hydroxypyrimidine-2-carboxamido)acetic acid] as the compound, how does the IC50 read?
**A.** The IC50 was 0.5 to 20 nM.

**Q.** How did the IC50 turn out when `O=C(NCCS(=O)(=O)O)c1ncc(C(=O)NC(c2ccccc2)c2ccccc2)c(O)n1` [Compound 2-4, 2-[({5-[(diphenylmethyl)carbamoyl]-4-hydroxypyrimidin-2-yl}carbonyl)amino]ethanesulfonic acid] was run?
**A.** Its IC50 is 0.5 to 20 nM.

**Q.** Which IC50 does the source give for `COC(=O)CNC(=O)c1ncc(C(=O)NC(c2ccccc2)c2ccccc2)c(O)n1` [Compound 2-3, Methyl N-({5-[(diphenylmethyl)carbamoyl]-4-hydroxypyrimidin-2-yl}carbonyl)glycinate] here?
**A.** The IC50 was 0.5 to 20 nM.

**Q.** How did the IC50 turn out when `O=C(O)CNC(=O)c1ncc(NC(=O)C(c2ccccc2)c2ccccc2)c(O)n1` [Compound 3-1, 2-(5-(2,2-Diphenylacetamido)-4-hydroxypyrimidine-2-carboxamido)acetic acid] was run?
**A.** The IC50 was 0.5 to 20 nM.

**Q.** `O=C(O)CNC(=O)c1ncc(C(=O)NCc2cccc3ccccc23)c(O)n1` [Compound 2-21, 2-(4-hydroxy-5-(naphthalen-1-ylmethylcarbamoyl)pyrimidine-2-carboxamido)acetic acid] was tested. Which IC50 did it give?
**A.** The IC50 was 20 to 100 nM.
